# Measured values taken from EP0068715A1, “Beta-lactam antibacterial agents, their preparation and use” (BEECHAM GROUP PLC, priority 1981, dated 1983).
# Experiments:
# Experiment in all cases: standard MIC synergy test with amoxycillin
# Type in all cases: cell-based
# Settings in all cases: amoxycillin alone, β-Lactamase Inhibitor: None
# [1] = tested on: E. coli JT39
# Source text: (§1) In a standard MIC synergy test, the following data were obtained for the compounds of this invention:-
# [2] = tested on: Kleb. E70
# Source text: as §1
# [3] = tested on: Proteus C889
# Source text: as §1
compound,measurement,setting,value
CC1(C)S[C@@H]2[C@H](NC(=O)[C@H](N)c3ccc(O)cc3)C(=O)N2[C@H]1C(=O)O [amoxycillin],MIC of amoxycillin (μg/ml) E. coli JT39,[1],2000 µg/mL
same,MIC of amoxycillin (μg/ml) Kleb. E70,[2],500 µg/mL
same,MIC of amoxycillin (μg/ml) Proteus C889,[3],>2000 µg/mL
